Laboratory results from US12343318B2, “Use of compound or medicinal derivative thereof in inhibiting AIM2 protein activity” (Liangdan Sun, priority 2023, dated 2025).

Experiments:
[1] = test system: IL-1β gene expression in the mouse skin; experiment: Transcription levels of AIM2 pathway genes in skin of IMQ mice; type: in vivo, C57/BL6 mice; conditions: 5 mg/kg, smeared on skin
Experimental: (§1) In the embodiment of the disclosure, dimethyl sulfoxide (DMSO) is used to dissolve T6S1683 powder, the powder is weighed according to different dosage, then diluted with β-cyclodextrin, and a final concentration of DMSO shall not exceed 5%. The dose gradients of T6S1683 set are 0 mg/kg, 1 mg/kg, 2.5 mg/kg, 5 mg/kg and 10 mg/kg respectively. Each mouse is calculated as 20 grams (g), and 0 mg/kg, 1 mg/kg, 2.5 mg/kg, 5 mg/kg and 10 mg/kg of T6S1683 are administered respective mice every day.
(§2) Seven-week-old C57/BL6 mice are selected, fed and modeled in a […] (SPF) environment. The experimental groups are as follows. […]
(§3) Six mice in each group above, and the mice are shaved back hair to make an exposed skin reach 4 square centimeters. […] The mouse skins are scored every day, the mice are sacrificed on Day 6, and skin tissue is taken for a series of tests.

IMQ mice = experiment: IMQ psoriasis mouse model: PASI scores, skin and pathological phenotypes; type: in vivo, C57/BL6 mice
Experimental: as §1
Seven-week-old C57/BL6 mice are selected, fed and modeled in a […] (SPF) environment. The experimental groups are as follows. (a) mouse skin smeared with IMQ and 0 mg/kg of T6S1683; (b) mouse skin smeared with IMQ and 1 mg/kg of T6S1683; (c) mouse skin smeared with IMQ and 2.5 mg/kg of T6S1683; (d) mouse skin smeared with IMQ and 5 mg/kg of T6S1683; (e) mouse skin smeared with IMQ and 10 mg/kg of T6S1683; (f) mouse skin smeared with Vaseline and 0 mg/kg of T6S1683; (g) mouse skin smeared with Vaseline and 1 mg/kg of T6S1683; (h) mouse skin smeared with Vaseline and 2.5 mg/kg of T6S1683; (i) mouse skin smeared with Vaseline and 5 mg/kg of T6S1683; and (j) mouse skin smeared with Vaseline and 10 mg/kg of T6S1683. (Note: the daily dosage of IMQ in groups (a), (b), (c), (d) and (e) is 62.5 mg/mouse, and the daily dosage of Vaseline in groups (f), (g), (h), (i) and (j) is 62.5 mg/mouse.)
Six mice in each group above, and the mice are shaved back hair to make an exposed skin reach 4 square centimeters. A start date of the experiment is set as Day 0 and an end date is set as Day 6. From Day 0 to Day 5, 500 μL medicine solution is applied daily and evenly smeared mouse skin to absorb, with 500 uL applied in the morning at a dose of 150 uL, at noon at 200 uL, and at night at 150 uL. […] The mouse skins are scored every day, the mice are sacrificed on Day 6, and skin tissue is taken for a series of tests. […]

mouse AIM2 protein = target: T1, mouse AIM2 protein (Mus musculus, UniProt Q91VJ1); experiment: Affinity by SPR (Biacore, CM5 chip amino coupling), mouse AIM2; conditions: mouse full-length AIM2 protein, read-out: binding constant KD
T1 construct: a mouse full-length AIM2 protein is expressed and purified firstly by pET28A vector; made in house
T1 sequence (Q91VJ1 1-354): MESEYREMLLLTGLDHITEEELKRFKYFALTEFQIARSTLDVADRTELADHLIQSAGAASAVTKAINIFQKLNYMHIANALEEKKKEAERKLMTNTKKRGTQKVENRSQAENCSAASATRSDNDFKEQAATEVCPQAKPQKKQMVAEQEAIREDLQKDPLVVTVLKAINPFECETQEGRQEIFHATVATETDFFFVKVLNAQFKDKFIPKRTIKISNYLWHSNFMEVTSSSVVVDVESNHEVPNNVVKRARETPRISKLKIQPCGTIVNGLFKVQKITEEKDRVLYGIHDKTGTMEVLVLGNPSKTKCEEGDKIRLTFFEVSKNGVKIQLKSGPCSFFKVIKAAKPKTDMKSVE
Experimental: (§4) In the embodiment of the disclosure, the affinity between T6S1683 and mouse AIM2 protein is detected. Specifically, a mouse full-length AIM2 protein is expressed and purified firstly by pET28A vector, and then the affinity is determined by CM5 chip amino coupling method by the SPR method of Biacore.

HaCaT cells = experiment: Cell state (pyroptosis) of OligodA-T transfected HaCaT cells under microscope; type: cell-based; conditions: 10 uM, microscope 100×
[2] = test system: IL-1β mRNA in HaCaT cells; experiment: Real-time fluorescence PCR of IL-1β mRNA in HaCaT cells stimulated by OligodA-T; type: cell-based; conditions: 10 uM, 24 hours
Experimental: The protective ability of 44 compounds screened above against cell pyroptosis of HaCaT cells stimulated by OligodA-T is evaluated by the real-time fluorescent quantitative polymerase chain reaction (PCR) detection of IL-1β mRNA in the stimulated cells. […] Positive control (PC) and negative control (NC) are set in the experimental group. An inclusion of Lip3000 (Lipofectamine™ 3000 Transfection Reagent) and OligodA-T (OligodA-T: Lip3000:P3000=1:1:25, a concentration of OligodA-T is 1 microgram per […] abbreviated as ug/mL) is used to transfect HaCat cells. […] Each experimental group is incubated in a cell incubator containing 5% CO2 for 24 hours at 37° C., and the cells are collected for real-time fluorescence PCR detection.
• (1) A positive control (PC), a negative control (NC) and respective treatment groups are set. […] The HaCat cells are co-transfected with inclusions of Lip3000-OligodA-T at gradient doses (0.1 uM, 1 uM, 5 uM, 10 uM and 25 uM) of T6S1683 in the respective treatment groups. • (2) The positive control (PC), the negative control (NC) and the respective treatment groups are incubated in a cell incubator containing 5% CO2 at 37° C. for 24 hours, and the cells are collected for real-time fluorescence PCR detection to observe the effects of different doses of inhibitors on the activation of AIM2 pathway in the HaCaT cells.

[3] = test system: AIM2 downstream protein in HaCat cells; experiment: AIM2 downstream protein expression in HaCaT cells (Western Blot, ELISA); type: cell-based; conditions: 10 uM
[4] = test system: TCRγ/CD3^+RORγt cells in the lymphocytes of mouse skin; experiment: Flow cytometry of skin lymphocytes of IMQ mice; type: in vivo, C57/BL6 mice; conditions: 5 mg/kg, smeared on skin
Experimental: as §1, §2, §3
Next, skin lymphocytes of the mice in each group (proportion of TCRγ/CD3^+RORγt cells in the lymphocytes of mouse skin, which are the main effector cells mediated by AIM2 pathway in psoriasis and can secrete a large amount of IL-17 cytokines to aggravate psoriasis) are detected by flow cytometry.

human AIM2 protein = target: T2, human AIM2 protein (Homo sapiens, UniProt O14862); experiment: Affinity by SPR (Biacore, CM5 chip amino-coupling), human AIM2; conditions: human full-length AIM2 protein, read-out: binding constant KD
T2 construct: a human full-length AIM2 protein is expressed and purified firstly by pET28A vector; made in house
T2 sequence (O14862 1-343): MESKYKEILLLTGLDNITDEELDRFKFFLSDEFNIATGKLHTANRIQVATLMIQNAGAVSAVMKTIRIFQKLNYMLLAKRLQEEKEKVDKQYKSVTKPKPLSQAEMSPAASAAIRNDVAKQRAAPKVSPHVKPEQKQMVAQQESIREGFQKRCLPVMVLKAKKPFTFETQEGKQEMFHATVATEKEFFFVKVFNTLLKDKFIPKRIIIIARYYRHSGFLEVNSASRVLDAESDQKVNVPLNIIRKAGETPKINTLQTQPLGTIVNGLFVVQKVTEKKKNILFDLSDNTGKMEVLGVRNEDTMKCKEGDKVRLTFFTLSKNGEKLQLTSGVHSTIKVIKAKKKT
Experimental: as §4, with “human” for “mouse”, “amino-coupling” for “amino coupling”, “through a surface-plasmon resonance (SPR)” for “by the SPR”

## COc1cc(/C=C/C(=O)CC(=O)/C=C/c2ccc(O)cc2)ccc1O [T6S1683, 1,6-heptadiene-3,5-dione,1-(4-hydroxy-3-methoxyphenyl)-7-(4-hydroxyphenyl)-,(1E, 6E)-]
[1]
  IL-1β gene expression level in mouse skin: significantly down-regulated
IMQ mice; 1 mg/kg, smeared on skin
  effect on inflammatory phenotype of IMQ mice: no difference
IMQ mice; 5 mg/kg, smeared on skin
  reduction effect on inflammatory phenotype of IMQ mice: the most significant
IMQ mice; three doses, smeared on skin daily Day 0 to Day 5
  inflammatory phenotype of IMQ mice: reduced the inflammatory phenotype of IMQ mice to varying degrees
Mouse AIM2 protein
  Kd: 5.12 µM
HaCaT cells
  cell state: close to that of the NC group
[2]; among 5 dose gradients (0.1, 1, 5, 10, 25 uM)
  IL-β transcription levels compared to the PC group: reduced IL-β transcription levels in the HaCat cells the most
[2]; screening of 44 compounds, OligodA-T 1 ug/mL
  inhibitory effect on IL-1β mRNA compared with the positive control: most significant inhibitory effect
[3]
  expression of AIM2 downstream protein (Western Blot): slightly decreases
  secretion of IL-1β (ELISA): inhibitory effect
[4]
  proportion of TCRγ/CD3^+RORγt compared with IMQ mice without T6S1683: significantly lower
Human AIM2 protein
  Kd: 1.56 µM
